Measurements: patent publication US6838453B2, “Antagonist derivatives of the vitronectin receptor” (Aventis Pharma S.A., priority 2000, dated 2005)
Counter-ions that a name gives are not always drawn.

Target: human αvβ3 receptor (Homo sapiens, UniProt P05106+P06756)
Assay: Kistrin/Vitronectin Receptor (αvβ3) ELISA test
Format: binding
Settings: Kistrin-coated plates, co-incubated 3 hours at ambient temperature, 4B12-HRP antibody, OD 450 nm, read-out: K/VnR IC50
Procedure: Kistrin/Vitronectin Receptor (αvβ3) ELISA Test
96-well MaxiSorp planes are coated overnight at […] with 100 μl of Kistrin at 1 μg/ml (dilution in a coating buffer: carbonate 0.05 M/NaOH pH 9.6). The next day, the wells are emptied and the ligands (kistrin) are then fixed (fixing buffers: PBS containing 0.5% BSA (pH=7.4)) for 1 hour at ambient temperature with gentle agitation at 125 rpm. The wells are washed six times (washing buffer: PBS containing 0.05% of Tween 20 (pH 7.7) then the following are added per well and in this order: • 40 μl of incubation buffer • 10 μl of the dilution of the product to be tested (the products are diluted in a 50:50 mixture DMSO/Water) • 50 μl of human αvβ3 receptor (cf Pytella et al. Methods Enzymol. (1987) 144 (Dilution in incubation buffer, to be adapted according to the receptor batch and according to the ligand). The ligand, the αvβ3 receptor and the products to be studied are co-incubated for 3 hours at ambient temperature with gentle agitation at 125 rpm.
The wells are again washed six times, then incubated for 2 hours at ambient temperature with gentle agitation at 125 rpm, in the presence of 100 μl of anti-receptor antibody conjugated to a peroxidase (The 4B12-HRP antibody is diluted in an incubation buffer (50 mM TRIS pH 7.4; 0.5% BSA; 0.05% Tween 20; 1 mM MnCl2; 50 μM CaCl2; 50 μM MgCl2; 100 mM NaCl) The dilution is adapted according to the receptor batch.
The wells are then washed six times before measuring the ligand-receptor bond carried out using a peroxidase developer kit (TBM Microwell Peroxidase Substrate System Kirkegaard; Cat. Ref. 50-76-00).
This kit contains a bottle A of substrate (3,3′,5,5′-tetramethylebenzidine at 0.4 g/l) and a bottle B (H2O2 at 0.02% in a Citrate/Citric acid buffer). Extemporaneously, a volume of A is mixed with a volume of B, then the reaction mixture is distributed at a rate of 100 μl/well.
The enzymatic reaction develops between 6 and 10 minutes for Kistrin/αvβ3 then its evolution is stopped by the addition of 100 μl of 1M phosphoric acid. The optical density is determined at 450 nm.
Expression of the Results
The following curve is plotted: the bond percentage as a function of the logarithm of each concentration of the tested product.
For each product, the IC50 is determined according to the following formula: IC50=(B0+Bmin)/2 • B0=Maximum bond in the absence of any product • Bmin =Minimum bond in the presence of the highest concentration of the product.

human αvβ3 receptor, sequence (P06756 31-889 limits assumed): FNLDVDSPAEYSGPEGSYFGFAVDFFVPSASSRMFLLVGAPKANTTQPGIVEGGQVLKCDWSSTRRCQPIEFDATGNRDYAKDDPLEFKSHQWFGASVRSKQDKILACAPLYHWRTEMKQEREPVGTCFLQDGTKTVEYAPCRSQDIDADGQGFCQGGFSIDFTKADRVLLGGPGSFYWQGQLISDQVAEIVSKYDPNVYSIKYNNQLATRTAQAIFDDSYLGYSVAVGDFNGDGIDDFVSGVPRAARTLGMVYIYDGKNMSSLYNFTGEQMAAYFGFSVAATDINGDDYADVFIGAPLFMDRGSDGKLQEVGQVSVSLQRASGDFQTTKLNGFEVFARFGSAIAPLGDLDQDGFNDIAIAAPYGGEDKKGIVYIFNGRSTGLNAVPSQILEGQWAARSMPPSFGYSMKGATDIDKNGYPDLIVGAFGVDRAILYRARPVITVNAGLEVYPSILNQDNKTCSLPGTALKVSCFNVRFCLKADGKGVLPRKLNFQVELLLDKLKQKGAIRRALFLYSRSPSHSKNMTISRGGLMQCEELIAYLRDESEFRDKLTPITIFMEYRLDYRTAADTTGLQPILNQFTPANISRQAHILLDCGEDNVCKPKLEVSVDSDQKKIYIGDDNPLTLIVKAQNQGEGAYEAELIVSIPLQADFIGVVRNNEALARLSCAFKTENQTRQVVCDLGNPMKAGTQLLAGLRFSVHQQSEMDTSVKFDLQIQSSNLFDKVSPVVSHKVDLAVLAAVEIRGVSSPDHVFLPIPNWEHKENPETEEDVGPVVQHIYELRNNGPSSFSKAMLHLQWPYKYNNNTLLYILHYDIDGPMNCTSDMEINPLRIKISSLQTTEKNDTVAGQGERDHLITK
human αvβ3 receptor, sequence (P06756 891-1048 limits assumed): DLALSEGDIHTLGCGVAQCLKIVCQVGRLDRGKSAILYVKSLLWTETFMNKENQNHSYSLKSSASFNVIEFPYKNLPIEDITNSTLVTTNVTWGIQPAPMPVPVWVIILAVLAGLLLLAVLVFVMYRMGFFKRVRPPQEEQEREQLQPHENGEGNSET
human αvβ3 receptor, sequence (P05106 27-788): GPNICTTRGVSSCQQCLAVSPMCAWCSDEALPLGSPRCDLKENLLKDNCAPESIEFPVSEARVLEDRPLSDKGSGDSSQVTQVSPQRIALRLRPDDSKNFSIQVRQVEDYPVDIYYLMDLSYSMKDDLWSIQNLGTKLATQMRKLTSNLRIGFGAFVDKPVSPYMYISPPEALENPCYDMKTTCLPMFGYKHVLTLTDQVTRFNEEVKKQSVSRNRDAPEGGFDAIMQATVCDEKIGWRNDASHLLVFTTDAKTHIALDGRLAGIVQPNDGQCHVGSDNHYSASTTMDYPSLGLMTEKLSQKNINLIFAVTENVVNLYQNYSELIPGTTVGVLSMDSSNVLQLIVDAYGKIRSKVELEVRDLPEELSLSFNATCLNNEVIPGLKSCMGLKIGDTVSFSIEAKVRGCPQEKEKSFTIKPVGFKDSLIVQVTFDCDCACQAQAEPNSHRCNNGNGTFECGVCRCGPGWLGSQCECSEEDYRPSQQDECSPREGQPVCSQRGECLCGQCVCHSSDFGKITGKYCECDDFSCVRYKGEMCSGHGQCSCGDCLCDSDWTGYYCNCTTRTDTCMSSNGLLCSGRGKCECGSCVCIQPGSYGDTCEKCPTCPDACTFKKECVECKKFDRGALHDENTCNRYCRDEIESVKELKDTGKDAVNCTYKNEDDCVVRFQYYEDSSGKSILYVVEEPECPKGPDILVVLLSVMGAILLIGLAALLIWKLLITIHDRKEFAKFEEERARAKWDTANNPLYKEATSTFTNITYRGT

| IC50 [nM] | SMILES |
| --- | --- |
| 7 | O=C(CCCOc1ccc(C[C@H](Nc2nc3cccc(Br)c3s2)C(=O)O)cc1)NC1=NCCCN1 [Example 33, N-(7-bromo-2-benzothiazolyl)-O-[4-oxo-4-[(1,4,5,6-tetrahydro-2-pyrimidinyl)amino]butyl]-L-tyrosine] |
| 7 | O=C(CCCOc1ccc(C[C@H](Nc2nc3cc(Cl)cc(Cl)c3o2)C(=O)O)cc1)NC1=NCCCN1 [Example 28, N-(5,7-dichloro-2-benzoxazolyl)-O-[4-oxo-4-[(1,4,5,6-tetrahydro-2-pyrimidinyl)amino]butyl]-L-tyrosine] |
| 12 | O=C(CCCOc1ccc(C[C@H](Nc2nc3ccc(F)c(F)c3o2)C(=O)O)cc1)NC1=NCCCN1 [Example 27, N-(6,7-difluoro-2-benzoxazolyl)-O-[4-oxo-4-[(1,4,5,6-tetrahydro-2-pyrimidinyl)amino]butyl]-L-tyrosine] |
| 5 | CN(c1ccccc1)S(=O)(=O)c1ccc2oc(N[C@@H](Cc3ccc(OCCCC(=O)NC4=NCCCN4)cc3)C(=O)O)nc2c1 [Example 31, N-[5-[(N-methylphenylamino)sulphonyl]-2-benzoxazolyl]-O-[4-oxo-4-[(1,4,5,6-tetrahydro-2-pyrimidinyl)amino]butyl]-L-tyrosine] |
| 18 | O=C(CCCOc1ccc(C[C@H](Nc2nc3cc(Br)ccc3s2)C(=O)O)cc1)NC1=NCCCN1 [Example 34, N-(5-bromo-2-benzothiazolyl)-O-[4-oxo-4-[(1,4,5,6-tetrahydro-2-pyrimidinyl)amino]butyl]-L-tyrosine] |
| 10 | O=C(CCCOc1ccc(C[C@H](Nc2nc3ccc(Cl)cc3s2)C(=O)O)cc1)NC1=NCCCN1 [Example 32, N-(6-chloro-2-benzothiazolyl)-O-[4-oxo-4-[(1,4,5,6-tetrahydro-2-pyrimidinyl)amino]butyl]-L-tyrosine] |
| 10 | Cc1c(Cl)cc2nc(N[C@@H](Cc3ccc(OCCCC(=O)NC4=NCCCN4)cc3)C(=O)O)oc2c1Cl [Example 29, N-(5,7-dichloro-6-methyl-2-benzoxazolyl)-O-[4-oxo-4-[(1,4,5,6-tetrahydro-2-pyrimidinyl)amino]butyl]-L-tyrosine] |
| 18 | O=C(CCCOc1ccc(C[C@H](Nc2nc3ccccc3[nH]2)C(=O)O)cc1)NC1=NCCCN1 [Example 35, N-(1H-benzimidazol-2-yl)-O-[4-oxo-4-[(1,4,5,6-tetrahydro-2-pyrimidinyl)amino]butyl]-L-tyrosine] |
| 8 | O=C(CCCOc1ccc(C[C@H](Nc2nc3ccc([N+](=O)[O-])cc3o2)C(=O)O)cc1)NC1=NCCCN1 [Example 22, N-(6-nitro-2-benzoxazolyl)-O-[4-oxo-4-[(1,4,5,6-tetrahydro-2-pyrimidinyl)amino]butyl]-L-tyrosine] |
| 7 | O=C(CCCOc1ccc(C[C@H](Nc2nc3cc(S(=O)(=O)Nc4ccccc4)ccc3o2)C(=O)O)cc1)NC1=NCCCN1 [Example 30, N-[5-[(phenylamino)sulphonyl]-2-benzoxazolyl]-O-[4-oxo-4-[(1,4,5,6-tetrahydro-2-pyrimidinyl)amino]butyl]-L-tyrosine] |

Second part, the compound before the results:

| SMILES | IC50 [nM] |
| --- | --- |
| O=C(CCCOc1ccc(C[C@H](Nc2nc3cccc(Cl)c3o2)C(=O)O)cc1)NC1=NCCCN1 [Example 15, N-(7-chloro-2-benzoxazolyl)-O-[4-oxo-4-[(1,4,5,6-tetrahydro-2-pyrimidinyl)amino]butyl]-L-tyrosine trifluoroacetate] | 5 |
| O=C(CCCOc1ccc(C[C@H](Nc2nc3c(ccc4ccccc43)o2)C(=O)O)cc1)NC1=NCCCN1 [Example 20, N-(naphth[1,2-d]oxazol-2-yl)-O-[4-oxo-4-[(1,4,5,6-tetrahydro-2-pyrimidinyl)amino]butyl]-L-tyrosine] | 35 |
| O=C(CCCOc1ccc(C[C@H](Nc2nc3cc(Br)cc(F)c3o2)C(=O)O)cc1)NC1=NCCCN1 [Example 9, N-[5-bromo-7-fluoro-2-benzoxazolyl)-O-[4-oxo-4-[(1,4,5,6-tetrahydro-2-pyrimidinyl)amino]butyl]-L-tyrosine] | 9 |
| O=C(O)[C@H](Cc1ccc(OCCCc2ccc3c(n2)NCCC3)cc1)Nc1nnnn1Cc1ccccc1 [Example 1, N-[1-(phenylmethyl)-1H-tetrazol-5-yl]-O-[3-(5,6,7,8-tetrahydro-1,8-naphthyridin-2-yl)propyl]-L-tyrosine] | 9 |
| O=C(CCCOc1ccc(C[C@H](Nc2nc3cc(-c4ccccc4)ccc3o2)C(=O)O)cc1)NC1=NCCCN1 [Example 21, O-[4-oxo-4-[(1,4,5,6-tetrahydro-2-pyrimidinyl)amino]butyl]-N-(5-phenyl-2-benzoxazolyl)-L-tyrosine] | 6 |
| O=C(CCCOc1ccc(C[C@H](Nc2nc3ccc(Br)cc3s2)C(=O)O)cc1)NC1=NCCCN1 [Example 8, N-(6-bromo-2-benzothiazolyl)-O-[4-oxo-4-[(1,4,5,6-tetrahydro-2-pyrimidinyl)amino]butyl]-L-tyrosine] | 8 |
| O=C(CCc1ccc(C(=O)NC[C@H](Nc2nc3ccc(Br)cc3s2)C(=O)O)cc1)NC1=NCCCN1 [Example 11, N-(6-bromo-2-benzothiazolyl)-3-[[4-[3-oxo-3-[(1,4,5,6-tetrahydro-2-pyrimidinyl)amino]propyl]benzoyl]amino]-L-alanine] | 7 |
| O=C(CCCOc1ccc(C[C@H](Nc2nnnn2Cc2ccccc2)C(=O)O)cc1)NC1=NCCCN1 [Example 5, O-[4-oxo-4-[(1,4,5,6-tetrahydro-2-pyrimidinyl)amino]butyl]-N-[1-(phenylmethyl)-1H-tetrazol-5-yl]-L-tyrosine] | 15 |
| O=C(CCCOc1ccc(C[C@H](Nc2nc3cc(Cl)ccc3o2)C(=O)O)cc1)NC1=NCCCN1 [Example 17, N-(5-chloro-2-benzoxazolyl)-O-[4-oxo-4-[(1,4,5,6-tetrahydro-2-pyrimidinyl)amino]butyl]-L-tyrosine] | 9 |
| COc1ccc2[nH]c(N[C@@H](Cc3ccc(OCCCC(=O)NC4=NCCCN4)cc3)C(=O)O)nc2c1 [Example 4a] | 19 |
| O=C(CCCOc1ccc(C[C@H](Nc2nc3cc(F)ccc3o2)C(=O)O)cc1)NC1=NCCCN1 [Example 14, N-(5-fluoro-2-benzoxazolyl)-O-[4-oxo-4-[(1,4,5,6-tetrahydro-2-pyrimidinyl)amino]butyl]-L-tyrosine trifluoroacetate] | 7 |
| Cc1ccc2[nH]c(N[C@@H](Cc3ccc(OCCCC(=O)NC4=NCCCN4)cc3)C(=O)O)nc2c1 [Example 4b, N-[5-methyl-1H-benzimidazol-2-yl]-O-[4-oxo-4-[(1,4,5,6-tetrahydro-2-pyrimidinyl)amino]butyl]-L-tyrosine] | 14 |
| O=C(CCCOc1ccc(C[C@H](Nc2nc3ccc(Cl)cc3o2)C(=O)O)cc1)NC1=NCCCN1 [Example 16, N-(6-chloro-2-benzoxazolyl)-O-[4-oxo-4-[(1,4,5,6-tetrahydro-2-pyrimidinyl)amino]butyl]-L-tyrosine] | 9 |
| O=C(CCCOc1ccc(C[C@H](Nc2nc3cc4ccccc4cc3o2)C(=O)O)cc1)NC1=NCCCN1 [Example 19, N-(naphth[2,3-d]oxazol-2-yl)-O-[4-oxo-4-[(1,4,5,6-tetrahydro-2-pyrimidinyl)amino]butyl]-L-tyrosine] | 6 |
| O=C(O)[C@H](Cc1ccc(OCCCc2ccc3c(n2)NCCC3)cc1)Nc1nc2ccccc2s1 [Example 2, N-(2-benzothiazolyl)-O-[3-(5,6,7,8-tetrahydro-1,8-naphthyridin-2-yl)propyl]-L-tyrosine] | 70 |
| O=C(CCc1ccc(C(=O)NC[C@H](Nc2nc3cc(Br)ccc3o2)C(=O)O)cc1)NC1=NCCCN1 [Example 10, N-(5-bromo-2-benzoxazolyl)-3-[[4-[3-oxo-3-[(1,4,5,6-tetrahydro-2-pyrimidinyl)amino]propyl]benzoyl]amino]-L-alanine] | 6 |
| O=C(CCCOc1ccc(C[C@H](Nc2nc3cccc(F)c3o2)C(=O)O)cc1)NC1=NCCCN1 [Example 12, N-(7-fluoro-2-benzoxazolyl)-O-[4-oxo-4-[(1,4,5,6-tetrahydro-2-pyrimidinyl)amino]butyl]-L-tyrosine] | 9 |
| O=C(CCCOc1ccc(C[C@H](Nc2nc3ccccc3o2)C(=O)O)cc1)NC1=NCCCN1 [Example 6, N-(2-benzoxazolyl)-O-[4-oxo-4-[(1,4,5,6-tetrahydro-2-pyrimidinyl)amino]butyl]-L-tyrosine] | 5 |
| O=C(O)[C@H](Cc1ccc(OCCCc2ccc3c(n2)NCCC3)cc1)Nc1nc2ccccc2o1 [Example 3, N-(2-benzoxazolyl)-O-[3-(5,6,7,8-tetrahydro-1,8-naphthyridin-2-yl)propyl]-L-tyrosine] | 50 |
